US20220017833A1, “Methods and Compositions for Scavenging Sulfides from Hydrocarbon Fluids and Aqueous Streams” (Nexgen Oilfield Chemicals, LLC, priority 2019, published 2022)

Experiments:
[1] = Short Reaction Time Capacity Test; conditions: for Min/Eq BT / Min/Eq FD / Min to BT / Min to FD: 20 g test; for Min to BT / Min to FD: 3.00 g BuOH, GIDA 6.68 g as GID, 3.32 g water
Description: (§1) Referring now to FIG. 1, therein is schematically depicted a sulfide scavenger testing system 100 comprising a gas source 2, a flow regulator 4, gas treatment vessel 6, and a sulfide measurement device 8. In one testing embodiment, gas (not shown) is flowed from gas source 2 via gas feed piping 10 into flow regulator 4, which regulates gas flow to gas treatment vessel 6 via regulated gas feed piping 12. The regulated gas flows into gas treatment vessel 6 via a bottom inlet 14 thereof, where it comes into contact with a volume of liquid 16 comprising a sulfide scavenger system (not separately labeled). The gas, having been treated by the liquid, flows out of a top end 18 of gas treatment vessel 6 and flows into sulfide measurement device 8 via treated gas outlet piping 20.
In one embodiment, gas flow from the flow regulator 4 is controlled such that the gas is flowed into the gas treatment vessel 6 at a flow rate of 100 mL/min. up to 500 mL/min. In one embodiment, a gas sparging device, such as a fine pore frit (not shown), is utilized to better distribute the gas into the scavenger liquid. In one embodiment, the gas treatment vessel 6 contains about 20 g of a liquid H2S scavenger, such as one or more diaminols/diaminacetals in a chemical system as described above. In one aspect, to the extent possible, H2S and/or CO2 are scavenged from the gas by the scavenger and the treated (“sweet”) gas exits top end 18 of treatment vessel 6. In one embodiment, sulfide measurement device 8 monitors the concentration of H2S leaving treatment vessel 6. in the gas phase. In other embodiments (not shown), a CO2 measurement device may be similarly employed to monitor the concentration of CO2 leaving treatment vessel 6 in the gas phase.
(§2) In one embodiment, gas is flowed through sulfide scavenger testing system 100 until the outlet H2S concentration reaches a 4,000 ppm target, at which point the test is concluded. This relative time duration before the target is reached is used to compare H2S scavenger capacity given the kinetics of each sulfide scavenger system. The longer the duration, the better the capacity.
(§3) The fine bubbles produced rise slowly, providing plenty of time, plenty of surface area, and a short path through which the H2S must diffuse to the scavenger in the liquid 16. Detector 8 on the outlet line 20 is used to measure H2S concentration in the exiting gas. The times to first detection (FD), at a threshold of 15 ppm, and to complete breakthrough (BT), at the detector saturation of 4000 ppm (0.4%), are recorded. This test is designed to measure the effective scavenging capacity in applications with long contact times.
This test is the same as the Long Reaction Time Capacity Test, but without the gas sparging device, so as to produce larger bubbles, and at a higher feed rate of 200 mL/min, after the first 8 minutes at 100 mL/min. The larger bubbles rise quickly through the liquid 16, providing little time, little surface area, and a long path through which the H2S must diffuse to the scavenger in the liquid. This test is designed to measure the effective scavenging capacity in applications with short contact times. It is far more reaction rate dependent than the Long Reaction Time Capacity and so is a more critical and differentiating test.
With triazine, one H2S reacts twice with the same molecule of triazine, replacing one amine, so the rate is “first order”, meaning proportional to the concentration of triazine.

[2] = operational testing in a natural gas production facility; conditions: natural gas production facility
Method: In operational testing in a natural gas production facility, both an anhydrous glyoxy isopropyl aminacetal (GIDAc) scavenging system and an aqueous glyoxy isopropyl diaminol (GIDA) scavenging system were tested in comparison with an industry standard triazine-based scavenger.

[3] = Long Reaction Time Capacity Test; conditions: for Min/Eq BT / Min/Eq FD / Min to BT / Min to FD: 20 g test
Description: as §1
In one embodiment, the gas contained in gas source 2 consists substantially of about 15% H2S, and about 3% CO2, with the remainder being Methane. In one embodiment, gas flow from the flow regulator 4 is controlled such that the gas is flowed into the gas treatment vessel 6 at a flow rate of 100 mL/min. up to 500 mL/min. In one embodiment, a gas sparging device, such as a fine pore frit (not shown), is utilized to better distribute the gas into the scavenger liquid. In one embodiment, the gas treatment vessel 6 contains about 20 g of a liquid H2S scavenger, such as one or more diaminols/diaminacetals in a chemical system as described above. In one aspect, to the extent possible, H2S and/or CO2 are scavenged from the gas by the scavenger and the treated (“sweet”) gas exits top end 18 of treatment vessel 6. In one embodiment, sulfide measurement device 8 monitors the concentration of H2S leaving treatment vessel 6. in the gas phase. In other embodiments (not shown), a CO2 measurement device may be similarly employed to monitor the concentration of CO2 leaving treatment vessel 6 in the gas phase.
as §2
as §3, with “In this test, methane containing 15% H2S and 3% CO2 by weight is sparged via a fine pore frit (not shown) at 100 mL/min through a column of 20 g of scavenger solution (See FIG. 1). The fine” for “The fine”
Note that the true total capacity of a scavenger with infinite time to react is simply equal to the stoichiometry of the reaction—the moles of H2S consumable per mole of scavenging molecule, which can be calculated. This Long Reaction Time Capacity measurement falls short of that ultimate stoichiometric capacity and so is still reaction rate dependent, just less so than the Short Reaction Time Capacity Test.

[4] = Eq/test GIDAc 0.114, GIDA 0.076 (8.00 g MeOH, 2.00 g BuOH)
[5] = Eq/test Triazine 0.068, GIDAc 0.157, GIDA 0.076 (7.50 g MeOH, 2.50 g BuOH)
[6] = GIDAc 8.00 g as GID, 9.00 g MeOH, 8.00 g MeOH, 2.00 g BuOH
[7] = Triazine 7.50 g + 12.50 g water, GIDAc 11.00 g as GID, 6.00 g MeOH, 7.50 g MeOH, 2.50 g BuOH
[8] = Short Reaction Time Capacity Test, Table 2 compositions
[9] = Eq/test Triazine 0.068, GIDAc 0.185, GIDA 0.076
[10] = GIDAc 9.00 g as GID + 11.00 g MeOH
[11] = Triazine 7.50 g + 12.50 g water, GIDAc 13.00 g as GID + 7.00 g MeOH, GIDA 6.68 g as GID, 3.32 g water, 8.00 g MeOH, 2.00 g BuOH

COC(NC(C)C)C(NC(C)C)OC (stereo not drawn) [GIDAc]
Min/Eq BT [1, 4]: 438 Min/Eq
Min/Eq FD [1, 4]: 368 Min/Eq
Min/Eq BT [1, 5]: 376 Min/Eq
Min/Eq FD [1, 5]: 319 Min/Eq
Min to BT [1, 6]: 50 min
Min to FD [1, 6]: 42 min
Min to BT [1, 7]: 59 min
Min to FD [1, 7]: 50 min
molar capacity at short reaction times (comparison, accounting for molar concentration) ([1]; Graph 1 (FIG. 3)): lower molar capacity at short reaction times
contribution to the BT capacity (coefficient of best fit equation) [1, 8]: 404 minutes per equivalent
contribution to the FD capacity (coefficient of best fit equation) [1, 8]: 324 minutes per equivalent
employable in scavenging H2S from natural gas [2]: employable
Min/Eq BT [3, 9]: 707 Min/Eq
Min/Eq FD [3, 9]: 566 Min/Eq
Min/Eq BT ([3]; GIDAc 0.128 Eq/test): 771 Min/Eq
Min/Eq FD ([3]; GIDAc 0.128 Eq/test): 592 Min/Eq
Min to BT [3, 10]: 99 min
Min to FD [3, 10]: 76 min
Min to BT [3, 11]: 131 min
Min to FD [3, 11]: 105 min
molar capacity at long reaction times (comparison, accounting for molar concentration) ([3]; Graph 1 (FIG. 3)): the same capacity as GIDA at long reaction times
